{"source": "paper PMC10122656", "about": "“Siglec-6 mediates the uptake of extracellular vesicles through a noncanonical glycolipid binding pocket” (Nature Communications, 2023)", "key": {"R92K Siglec-6-Fc": {"molecular_target": "T1, R92K Siglec-6-Fc (Homo sapiens, UniProt O43699, R92K)", "T1 construct": "the Siglecs as Fc chimeras; made in house; host or cells: WT CHO cells", "T1 sequence (O43699 27-347 R92K limits assumed)": "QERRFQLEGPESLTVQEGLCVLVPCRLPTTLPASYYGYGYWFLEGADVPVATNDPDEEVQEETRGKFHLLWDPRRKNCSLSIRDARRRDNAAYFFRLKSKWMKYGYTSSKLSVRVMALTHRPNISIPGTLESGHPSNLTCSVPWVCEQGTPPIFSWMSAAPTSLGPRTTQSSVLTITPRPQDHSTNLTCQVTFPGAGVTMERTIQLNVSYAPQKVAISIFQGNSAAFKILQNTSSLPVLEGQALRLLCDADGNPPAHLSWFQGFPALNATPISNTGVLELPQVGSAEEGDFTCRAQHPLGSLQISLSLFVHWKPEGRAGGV", "experiment": "Bead assay (Siglec-Fc on streptavidin microbeads, flow cytometry)", "type": "binding", "experimental": "(§1) Siglec-Fc constructs designed by Rodrigues et al.[30] were used in this work. Siglec-Fc constructs were expressed using WT CHO cells in cell culture media as described above with 1% HEPES. Cells incubated as described above for one-week post confluency. The supernatant was harvested and stored at 4 °C.\n(§2) The purification was heavily inspired by Rodrigues et al.[30]. The purification of the Siglec-Fcs from supernatant began with Ni^2+ affinity chromatography using an AKTA FPLC equipped with a HisTrap Excel column (GE). The column was equilibrated with fifteen column volumes (CVs) of equilibrium buffer (500 mM NaCl, 20 mM NaPO4H2, pH 7.4). The Siglec-Fc containing supernatant was then loaded in its entirety onto the column. The column was then washed with fifteen CVs of wash buffer (500 mM NaCl, 30 mM imidazole, 20 mM NaPO4H2, pH 7.4). The Siglec-Fc was then eluted in 20 in 1 mL fractions with twenty CVs of elution buffer (500 mM NaCl, 500 mM imidazole, 20 mM NaPO4H2, pH 7.4). Fractions containing Siglec-Fc were compiled and then prepared for the next stage of purification by diluting the fractions 1:4 with buffer W (100 mM Tris–HCl, 150 mM NaCl, 1 mM EDTA, pH 8.0). A Strep-Tactin column (IBA life sciences) was washed with fifteen CVs of buffer W. The Siglec-Fc-buffer W solution was then loaded in its entirety onto the column. The bound Siglec-Fc was then washed with fifteen CVs of buffer W. Siglec-Fc was eluted from the column with 15 column volumes of buffer E (100 mM Tris–HCl, 150 mM NaCl, 1 mM EDTA, 10 mM d-Desthiobiotin, pH 8.0). Fractions containing Siglec-Fc were pooled and dialyzed against PBS to remove any d-Desthiobiotin. After dialysis, Siglec-Fcs were concentrated using an ultra-centrifugal device (30 kDa MWCO) and aliquoted into 5 µg aliquots, and frozen. The Siglec-Fcs were then lyophilized overnight, and the lyophilized Siglec-Fcs were stored at −20 °C.\n(§3) Pierce^TM Streptavidin Magnetic Beads (Thermo Scientific) were blocked with 2% (m/V) BSA on ice for 1 h. Siglec-Fc in PBS was added then added to the bead solution such that the final concentration was 25 µg/mL. The Siglec-Fc was complexed to the beads for 1 h on ice. Excess Siglec-Fc was removed by washing the beads with 2% BSA solution and 50 µM liposome or 50 µg/mL (protein concentration) EV solution was then added to the beads. The beads were incubated with the liposomes/EVs for 30 min at 37 °C. The beads were then washed with 2% BSA solution and flow cytometry was used to measure the binding between the beads and the liposomes."}, "WT Siglec-6-Fc": {"molecular_target": "T2, WT Siglec-6-Fc (Homo sapiens, UniProt O43699)", "T2 construct": "the Siglecs as Fc chimeras; made in house; host or cells: WT CHO cells", "T2 sequence (O43699 27-347 limits assumed)": "as the sequence (O43699 27-347 R92K limits assumed) above, with K66R counted along it", "experiment": "Bead assay (Siglec-Fc on streptavidin microbeads, flow cytometry)", "type": "binding", "experimental": "as §1, §2, §3"}, "[1]": {"molecular_target": "T3, Daudi cells transduced with WT Siglec-6 (Homo sapiens, UniProt O43699)", "T3 construct": "expressed in transfected cells; host or cells: Daudi cells (human B-cell line), lentiviral transduction", "T3 sequence (O43699 27-453)": "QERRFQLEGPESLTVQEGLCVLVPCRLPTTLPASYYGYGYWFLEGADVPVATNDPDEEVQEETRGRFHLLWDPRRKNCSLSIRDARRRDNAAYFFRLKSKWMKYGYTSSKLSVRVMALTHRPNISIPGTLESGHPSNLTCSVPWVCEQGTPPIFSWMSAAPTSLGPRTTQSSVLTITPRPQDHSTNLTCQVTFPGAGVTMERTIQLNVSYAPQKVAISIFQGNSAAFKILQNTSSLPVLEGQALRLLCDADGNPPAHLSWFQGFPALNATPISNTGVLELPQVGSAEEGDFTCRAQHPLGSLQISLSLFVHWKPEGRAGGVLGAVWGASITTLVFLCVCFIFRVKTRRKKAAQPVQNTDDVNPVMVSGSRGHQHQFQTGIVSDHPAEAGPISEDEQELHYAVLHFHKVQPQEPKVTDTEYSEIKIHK", "experiment": "pHrodo internalization assay by flow cytometry", "type": "cell-based", "settings": "for liposome internalization signal (replicates): sheet Figure S42b", "experimental": "Siglec-6 lentivirus was produced as previously reported by Bhattacherjee, A. et al.[72]. Briefly, 1 × 10^6 HEK293T cells were plated in a 6-well dish containing 1.5 mL of DMEM growth medium (Gibco) containing 10% (V/V) fetal bovine serum (FBS; Gibco), 100 U/mL penicillin (Gibco) and 100 µg/mL streptomycin (Gibco). 24 h later, a mixture of 625 ng RP18, 625 ng RP19, 1250 ng hSiglec-6 vector, 7.5 µL TransIT®-LT1 Reagent (Mirus Bio), and Opti-MEM media (Gibco) was added to the HEK293T cells. Cells were incubated with this transfection mixture at 37 °C, 5% CO2 for 72 h. Following transfection, the cell supernatant was harvested and concentrated using Lenti-X concentrator reagent (Takara Bio) following the manufacturer’s instructions.\n1.5 × 10^5 Daudi cells were plated in a 24-well plate in 250 µL of RPMI growth medium (Gibco) containing 10% (V/V) fetal bovine serum (FBS; Gibco), 100 U/mL penicillin (Gibco) and 100 µg/mL streptomycin (Gibco). A range of 10X concentrated lentivirus (1, 2, 5, 10 µL) was added to the corresponding wells and incubated for approximately 8 h at 37 °C, 5% CO2 in a tissue culture incubator. After incubation, the media in each well was topped up to 750 µL. Three days post-transduction, 200 µL of cells were plated in a 96-well U-bottom plate and centrifuged at 300 × g for 5 min. The cell pellets were resuspended in 150 µL of flow cytometry buffer (HBSS containing 1% (V/V) FBS, 500 µM EDTA) and the titer of each virus was determined by measuring the mAmentrine+ cells in each well by flow cytometry. The mAmetrine+ cells, ranging from 0.5% to 5%, were re-plated in six-well plates. The mAmetrine+ virally transduced cells were selected for using 300 µg/mL zeocin until the mAmetrine+ population was ≥95%.\nHuman peripheral blood, taken under an approved institutional ethics protocol, was centrifuged at 1700 × g for 5 min at 4 °C. The upper phase (plasma) was collected and centrifuged at 10,000 × g for 30 min at 4 °C. […]"}}, "note": "Where “and” joins values, the source holds several entries; their conditions need not be identical. Identical values can stand only once."}
{"compound": "CCCCCCCCCCCCCCCCOCC(COCCCCCCCCCCCCCCCC)OCc1cn(CCO[C@@H]2O[C@H](CO)[C@@H](O[C@@H]3O[C@H](CO)[C@H](O)[C@H](O[C@]4(C(=O)O)C[C@H](O)[C@@H](NC(C)=O)[C@H]([C@H](O)[C@H](O)CO)O4)[C@H]3O)[C@H](O)[C@H]2O)nn1", "note": "[GM3-DAG]", "values": [{"measurement": "liposome binding, fluorescence signal (replicates)", "setting": "R92K Siglec-6-Fc; sheet Figure S27, R92K, assay format not given", "result": "264 and 225 and 240 and 223"}, {"measurement": "liposome binding, fluorescence signal (replicates)", "setting": "WT Siglec-6-Fc; sheet Figure S27, WT, assay format not given", "result": "13816 and 10279 and 11696 and 11729"}]}
{"compound": "CCCCCCCCCCCCCCCCOCC(COCCCCCCCCCCCCCCCC)OCc1cn(CCO[C@@H]2O[C@H](CO)[C@@H](O[C@@H]3O[C@H](CO)[C@H](O)[C@H](O[C@]4(C(=O)O)C[C@H](O)[C@@H](NC(C)=O)[C@H]([C@H](O)[C@H](O)CO)O4)[C@H]3O)[C@H](O)[C@H]2O)nn1", "note": "[nGL 5]", "values": [{"measurement": "binding of 5 nGLLs to R92K Siglec-6 Fc compared to WT Siglec-6", "setting": "R92K Siglec-6-Fc; bead assay", "result": "less than 5%"}, {"measurement": "blocking of EV binding to Siglec-6 with 5 mol% 5 nGLLs", "setting": "WT Siglec-6-Fc; bead assay", "result": "competed away binding of EVs"}, {"measurement": "pHrodo signal of 5 nGLLs in Siglec-6 Daudi cells", "setting": "[1]; independent of Arg122, only at 37 °C", "result": "time-dependent increase in pHrodo signal"}]}
{"compound": "GM3", "values": [{"measurement": "liposome internalization signal (replicates)", "setting": "[1]; WT-4", "result": "16.4 and 15.8 and 17.6 and 19.4"}, {"measurement": "liposome internalization signal (replicates)", "setting": "[1]; WT-37", "result": "30.6 and 27.6 and 33.7 and 27.8"}]}
